Experiment in all cases: two-electrode voltage clamp, Xenopus oocytes
What all share (assay type): cell-based
In general terms: In two-electrode clamp one electrode senses voltage and the other passes current.

Experiment [1] has as its target T1, Orco + Or35a (Drosophila melanogaster, UniProt Q9V3Q2).
T1 construct: same complex as P4, site on OrX; with Odorant receptor coreceptor
T1 sequence (Q9V3Q2 1-409): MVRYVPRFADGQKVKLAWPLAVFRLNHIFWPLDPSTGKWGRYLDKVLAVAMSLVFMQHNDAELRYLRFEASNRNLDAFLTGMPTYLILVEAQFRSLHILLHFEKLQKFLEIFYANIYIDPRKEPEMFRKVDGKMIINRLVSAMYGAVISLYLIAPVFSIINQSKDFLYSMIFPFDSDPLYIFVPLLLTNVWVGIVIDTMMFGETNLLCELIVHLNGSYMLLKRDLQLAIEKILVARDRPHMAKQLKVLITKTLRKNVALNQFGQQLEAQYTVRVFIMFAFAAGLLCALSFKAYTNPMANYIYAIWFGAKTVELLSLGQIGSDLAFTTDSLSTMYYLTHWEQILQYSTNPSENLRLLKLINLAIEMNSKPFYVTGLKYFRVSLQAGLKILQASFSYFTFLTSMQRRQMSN
T1 sequence (Q9VNB5 1-486 partner): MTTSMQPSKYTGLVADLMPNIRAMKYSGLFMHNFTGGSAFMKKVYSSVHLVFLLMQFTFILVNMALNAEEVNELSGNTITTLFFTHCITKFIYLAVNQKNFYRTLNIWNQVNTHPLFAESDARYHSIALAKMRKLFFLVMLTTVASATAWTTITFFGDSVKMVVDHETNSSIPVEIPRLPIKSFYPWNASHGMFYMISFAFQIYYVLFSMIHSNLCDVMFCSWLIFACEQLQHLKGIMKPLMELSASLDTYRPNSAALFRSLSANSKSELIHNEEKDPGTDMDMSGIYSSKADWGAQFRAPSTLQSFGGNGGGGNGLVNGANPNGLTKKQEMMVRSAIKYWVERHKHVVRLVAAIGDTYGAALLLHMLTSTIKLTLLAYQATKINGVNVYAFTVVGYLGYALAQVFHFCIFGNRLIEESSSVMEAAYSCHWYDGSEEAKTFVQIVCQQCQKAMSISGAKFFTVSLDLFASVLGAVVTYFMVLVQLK
Conditions: agonist; 10 μM in Figure 2D; holding potential -80 mV, ND96 pH 7.4.

Experiment [2] concerns the target T2, Orco + Or24a (Drosophila melanogaster, UniProt P81913).
T2 construct: same complex as P3, site on OrX; with Odorant receptor coreceptor
T2 sequence (P81913 1-398): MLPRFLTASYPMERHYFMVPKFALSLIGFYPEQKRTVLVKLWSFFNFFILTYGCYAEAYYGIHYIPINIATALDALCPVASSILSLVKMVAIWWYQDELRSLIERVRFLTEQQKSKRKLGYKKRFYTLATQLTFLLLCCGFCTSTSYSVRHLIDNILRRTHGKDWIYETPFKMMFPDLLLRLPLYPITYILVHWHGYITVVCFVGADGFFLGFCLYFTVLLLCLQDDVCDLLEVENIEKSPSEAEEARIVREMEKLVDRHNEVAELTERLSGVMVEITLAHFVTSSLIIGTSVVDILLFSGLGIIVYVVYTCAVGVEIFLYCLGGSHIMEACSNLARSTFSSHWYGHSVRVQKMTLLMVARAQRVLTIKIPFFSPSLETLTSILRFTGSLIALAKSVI
T2 sequence (Q9VNB5 1-486 partner): T1 sequence (Q9VNB5 1-486 partner)
The conditions noted are these: agonist; 0.3 μM in Figure 2C; holding potential -80 mV, ND96 pH 7.4.

In experiment [3] the target is T3, Orco + Or1a (Drosophila melanogaster, UniProt Q9W5G6).
T3 construct: same complex as P2, site on OrX; with Odorant receptor coreceptor
T3 sequence (Q9W5G6 1-392): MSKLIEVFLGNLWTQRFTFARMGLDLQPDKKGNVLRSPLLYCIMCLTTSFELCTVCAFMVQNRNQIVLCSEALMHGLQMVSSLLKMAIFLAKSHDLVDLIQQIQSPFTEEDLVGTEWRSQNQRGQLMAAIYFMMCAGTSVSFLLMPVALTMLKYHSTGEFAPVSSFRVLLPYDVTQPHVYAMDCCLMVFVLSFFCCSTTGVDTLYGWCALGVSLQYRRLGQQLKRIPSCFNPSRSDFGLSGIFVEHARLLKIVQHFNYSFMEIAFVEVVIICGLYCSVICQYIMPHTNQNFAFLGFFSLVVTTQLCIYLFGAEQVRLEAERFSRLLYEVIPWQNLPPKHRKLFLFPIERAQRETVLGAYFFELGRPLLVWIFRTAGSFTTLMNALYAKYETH
T3 sequence (Q9VNB5 1-486 partner): T1 sequence (Q9VNB5 1-486 partner)
The conditions noted are these: agonist; 0.3 μM in Figure 2B; holding potential -80 mV, ND96 pH 7.4.

Experiment [4] concerns the target T4, Orco homomeric receptor (Drosophila melanogaster, UniProt Q9VNB5).
T4 construct: synthesised cDNA in pGEM-HE, cRNA injected in Xenopus laevis oocytes; homotetramer
T4 sequence (Q9VNB5 1-486): T1 sequence (Q9VNB5 1-486 partner)
Conditions: agonist; holding potential -80 mV, ND96 pH 7.4, room temperature.

The target in experiment [5] is T5, ORCO + Or35a (Drosophila melanogaster, UniProt Q9VNB5).
T5 construct: heteromer; cRNAs co-injected in Xenopus laevis oocytes (pGEM-HE); for DTBP, site on Orco; with Odorant receptor 35a
T5 sequence (Q9VNB5 1-486): T1 sequence (Q9VNB5 1-486 partner)
T5 sequence (Q9V3Q2 1-409 partner): T1 sequence (Q9V3Q2 1-409)
Conditions: agonist; holding potential -80 mV, ND96 pH 7.4, room temperature. The source says: two-electrode voltage clamp, Xenopus oocytes on ORCO + Or35a

For experiment [6], the target named is T6, ORCO + Or24a (Drosophila melanogaster, UniProt Q9VNB5).
T6 construct: heteromer; cRNAs co-injected in Xenopus laevis oocytes (pGEM-HE); for DTBP, site on Orco; with Odorant receptor 24a
T6 sequence (Q9VNB5 1-486): T1 sequence (Q9VNB5 1-486 partner)
T6 sequence (P81913 1-398 partner): T2 sequence (P81913 1-398)
Conditions: agonist; holding potential -80 mV, ND96 pH 7.4, room temperature. The source says:
two-electrode voltage clamp, Xenopus oocytes on ORCO + Or24a

For experiment [7], the target named is T7, ORCO + Or1a (Drosophila melanogaster, UniProt Q9VNB5).
T7 construct: heteromer; cRNAs co-injected in Xenopus laevis oocytes (pGEM-HE); for DTBP, site on Orco; with Odorant receptor 1a
T7 sequence (Q9VNB5 1-486): T1 sequence (Q9VNB5 1-486 partner)
T7 sequence (Q9W5G6 1-392 partner): T3 sequence (Q9W5G6 1-392)
Conditions: agonist; holding potential -80 mV, ND96 pH 7.4, room temperature; unit inferred, μM from text for the ORCO row. The source says:
two-electrode voltage clamp, Xenopus oocytes on ORCO + Or1a

On to `CCCCC(C)O` (stereo not shown) [2-hexanol], for which the normalised dose-response curve result in experiment [1] is “illustrate the normalized activation of DTBP and other odorants for each heteromeric receptor”. For the compound `CCCCCCCCO` [octanol], the normalised dose-response curve entry in experiment [2] is “illustrate the normalized activation of DTBP and other odorants for each heteromeric receptor”. `CCCCCC(C)=O` [2-heptanone]: in experiment [3], the normalised dose-response curve entry was “illustrate the normalized activation of DTBP and other odorants for each heteromeric receptor”. On to `CC(C)(C)c1ccc(O)c(C(C)(C)C)c1` [2,4-di-tert-butylphenol], for which the EC50 in experiment [4] was 13.4 ± 3 µM; in experiment [5], 38.1 ± 3.8 µM; in experiment [6], 51 ± 8.2 µM; in experiment [7] it was 104 ± 27.7 µM.

For orientation: EC50 means the concentration needed to bring the measured effect to its halfway point.

Values taken from publication PMC10779170, “Identification of 2,4-Di-tert-butylphenol as a Novel Agonist for Insect Odorant Receptors” (International Journal of Molecular Sciences, 2023).
